In ChEMBL document CHEMBL1201862, “PubChem BioAssay data set” (2004):
“And” between values parts separate entries of the source, which are not always exact repeats. Equal values may be shown once.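 Each compound was tested at five concentrations against cells in 96-well plates for 48 hours. The concentration for 50% growth inhibition is given as GI50.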 The source made the active and inactive calls. No stated cut-off is given here; in the data, active = GI50 up to about 1.1 µM and inactive = higher.

Experiments:
Experiment in all cases: growth of human tumour cells (NCI), 48 h
MCF7 = test system: MCF7
LOX IMVI = test system: LOX IMVI
MDA-MB-231 = test system: MDA-MB-231
SK-MEL-5 = test system: SK-MEL-5
OVCAR-5 = test system: OVCAR-5
NCI-H460 = test system: NCI-H460
RPMI-8226 = test system: RPMI-8226
DU-145 = test system: DU-145
OVCAR-4 = test system: OVCAR-4
HOP-92 = test system: HOP-92
MDA-MB-435 = test system: MDA-MB-435
OVCAR-3 = test system: OVCAR-3
OVCAR-8 = test system: OVCAR-8
UACC-257 = test system: UACC-257
HL-60 = test system: HL-60
SK-MEL-28 = test system: SK-MEL-28
HOP-62 = test system: HOP-62
786-0 = test system: 786-0
EKVX = test system: EKVX
A549 = test system: A549
MOLT-4 = test system: MOLT-4
Hs-578T = test system: Hs-578T
NCI-H23 = test system: NCI-H23
KM12 = test system: KM12
CAKI-1 = test system: CAKI-1
SNB-75 = test system: SNB-75
COLO 205 = test system: COLO 205
NCI-H522 = test system: NCI-H522
SNB-19 = test system: SNB-19
SF-295 = test system: SF-295
SW-620 = test system: SW-620
TK-10 = test system: TK-10
NCI-H226 = test system: NCI-H226
BT-549 = test system: BT-549
UACC-62 = test system: UACC-62
T47D = test system: T47D
K562 = test system: K562
CCRF-CEM = test system: CCRF-CEM
RXF 393 = test system: RXF 393
ACHN = test system: ACHN
MDA-N = test system: MDA-N
SK-OV-3 = test system: SK-OV-3
SN12C = test system: SN12C
HT-29 = test system: HT-29
HCT-15 = test system: HCT-15
NCI/ADR-RES = test system: NCI/ADR-RES
HCC 2998 = test system: HCC 2998
U-251 = test system: U-251
SF-539 = test system: SF-539
Malme-3M = test system: Malme-3M
HCT-116 = test system: HCT-116
IGROV-1 = test system: IGROV-1
SF-268 = test system: SF-268
M14 = test system: M14
SR = test system: SR
SK-MEL-2 = test system: SK-MEL-2
PC-3 = test system: PC-3
UO-31 = test system: UO-31

SMILES: O=C1N/C(=N/N=C/C(O)C(O)C(O)CO)N/C1=C\c1c[nH]c2ccccc12 (stereo not drawn)
- GI50 (MCF7): > 100 µM (inactive)
- GI50 (LOX IMVI): > 100 µM (inactive)
- GI50 (MDA-MB-231): > 100 µM (inactive)
- GI50 (SK-MEL-5): > 100 µM (inactive)
- GI50 (OVCAR-5): > 100 µM (inactive)
- GI50 (NCI-H460): > 100 µM (inactive)
- GI50 (RPMI-8226): > 100 µM (inactive)
- GI50 (DU-145): > 100 µM (inactive)
- GI50 (OVCAR-4): > 100 µM (inactive)
- GI50 (HOP-92): > 100 µM (inactive)
- GI50 (MDA-MB-435): > 100 µM (inactive)
- GI50 (OVCAR-3): > 100 µM (inactive)
- GI50 (OVCAR-8): > 100 µM (inactive)
- GI50 (UACC-257): > 100 µM (inactive)
- GI50 (HL-60): > 100 µM (inactive)
- GI50 (SK-MEL-28): > 100 µM (inactive)
- GI50 (HOP-62): > 100 µM (inactive)
- GI50 (786-0): > 100 µM (inactive)
- GI50 (EKVX): > 100 µM (inactive)
- GI50 (A549): > 100 µM (inactive)
- GI50 (MOLT-4): > 100 µM (inactive)
- GI50 (Hs-578T): > 100 µM (inactive)
- GI50 (NCI-H23): > 100 µM (inactive)
- GI50 (KM12): > 100 µM (inactive)
- GI50 (CAKI-1): > 100 µM (inactive)
- GI50 (SNB-75): > 100 µM (inactive)
- GI50 (COLO 205): > 100 µM (inactive)
- GI50 (NCI-H522): > 100 µM (inactive)
- GI50 (SNB-19): 1.93 µM (inactive)
- GI50 (SF-295): > 100 µM (inactive)
- GI50 (SW-620): > 100 µM (inactive)
- GI50 (TK-10): > 100 µM (inactive)
- GI50 (NCI-H226): > 100 µM (inactive)
- GI50 (BT-549): > 100 µM (inactive)
- GI50 (UACC-62): > 100 µM (inactive)
- GI50 (T47D): > 100 µM (inactive)
- GI50 (K562): > 100 µM (inactive)
- GI50 (CCRF-CEM): 41.7 µM (inactive)
- GI50 (RXF 393): > 100 µM (inactive)
- GI50 (ACHN): > 100 µM (inactive)
- GI50 (MDA-N): > 100 µM (inactive)
- GI50 (SK-OV-3): > 100 µM (inactive)
- GI50 (SN12C): > 100 µM (inactive)
- GI50 (HT-29): > 100 µM (inactive)
- GI50 (HCT-15): > 100 µM
- GI50 (NCI/ADR-RES): > 100 µM (inactive)
- GI50 (HCC 2998): > 100 µM (inactive)
- GI50 (U-251): > 100 µM (inactive)
- GI50 (SF-539): > 100 µM (inactive)
- GI50 (Malme-3M): > 100 µM (inactive)
- GI50 (HCT-116): > 100 µM (inactive)
- GI50 (IGROV-1): > 100 µM (inactive)
- GI50 (SF-268): > 100 µM (inactive)
- GI50 (M14): > 100 µM (inactive)

SMILES: COC1OC(COC(=O)NCCCCC(=O)C(F)(F)C(F)(F)C(F)(F)C(F)(F)C(F)(F)C(F)(F)C(F)(F)F)C(O)C(O)C1O (stereo not drawn)
- GI50 (MCF7): 17.6 µM (inactive) and 18.4 µM (inactive)
- GI50 (LOX IMVI): 14.2 µM (inactive) and 15.9 µM (inactive)
- GI50 (MDA-MB-231): 23.1 µM (inactive) and 23.9 µM (inactive)
- GI50 (SK-MEL-5): 13.1 µM (inactive) and 12 µM (inactive)
- GI50 (OVCAR-5): 17.8 µM (inactive) and 17.5 µM (inactive)
- GI50 (NCI-H460): 22.4 µM (inactive) and 16.8 µM (inactive)
- GI50 (SR): 30.3 µM (inactive) and 42.9 µM (inactive)
- GI50 (RPMI-8226): 28.9 µM (inactive) and 29.9 µM (inactive)
- GI50 (OVCAR-4): 15 µM (inactive) and 16.7 µM (inactive)
- GI50 (MDA-MB-435): 15.8 µM (inactive) and 16.6 µM (inactive)
- GI50 (SK-MEL-2): 22.2 µM (inactive) and 21.8 µM (inactive)
- GI50 (PC-3): 12.9 µM (inactive) and 13.6 µM (inactive)
- GI50 (OVCAR-3): 15.5 µM (inactive) and 14.9 µM (inactive)
- GI50 (UACC-257): 16.9 µM (inactive) and 16.6 µM (inactive)
- GI50 (SK-MEL-28): 17.3 µM (inactive) and 16.7 µM (inactive)
- GI50 (HOP-62): 15 µM (inactive) and 16.2 µM (inactive)
- GI50 (786-0): 16.4 µM (inactive) and 16.5 µM (inactive)
- GI50 (A549): 17.9 µM (inactive) and 15.6 µM (inactive)
- GI50 (Hs-578T): 15.2 µM (inactive) and 17.7 µM (inactive)
- GI50 (NCI-H23): 14.8 µM (inactive) and 17.8 µM (inactive)
- GI50 (KM12): 17.5 µM (inactive) and 18.7 µM (inactive)
- GI50 (CAKI-1): 16.4 µM (inactive) and 17.2 µM (inactive)
- GI50 (SNB-75): 14.4 µM (inactive) and 15.8 µM (inactive)
- GI50 (COLO 205): 25.9 µM (inactive) and 21.8 µM (inactive)
- GI50 (SNB-19): 17.8 µM (inactive) and 17.9 µM (inactive)
- GI50 (SF-295): 20.7 µM (inactive) and 19.5 µM (inactive)
- GI50 (SW-620): 17.1 µM (inactive) and 15.8 µM (inactive)
- GI50 (TK-10): 16.9 µM (inactive) and 16.4 µM (inactive)
- GI50 (BT-549): 17.6 µM (inactive) and 17.4 µM (inactive)
- GI50 (UACC-62): 13.7 µM (inactive) and 14.4 µM (inactive)
- GI50 (T47D): 19.6 µM (inactive) and 15.2 µM (inactive)
- GI50 (K562): 10.6 µM (inactive) and 16 µM (inactive)
- GI50 (RXF 393): 13.6 µM (inactive) and 15.1 µM (inactive)
- GI50 (ACHN): 15.6 µM (inactive) and 16.4 µM (inactive)
- GI50 (MDA-N): 24 µM (inactive) and 26.4 µM (inactive)
- GI50 (UO-31): 16.8 µM (inactive) and 17.1 µM (inactive)
- GI50 (SK-OV-3): 14.2 µM (inactive) and 15.8 µM (inactive)
- GI50 (SN12C): 19.6 µM (inactive) and 21.4 µM (inactive)
- GI50 (HT-29): 15.8 µM (inactive) and 13.5 µM (inactive)
- GI50 (HCT-15): 18.5 µM and 19.4 µM
- GI50 (NCI/ADR-RES): 34.5 µM (inactive) and 28.4 µM (inactive)
- GI50 (HCC 2998): 19.6 µM (inactive) and 19.5 µM (inactive)
- GI50 (U-251): 19.3 µM (inactive) and 11.9 µM (inactive)
- GI50 (SF-539): 18 µM (inactive) and 15.5 µM (inactive)
- GI50 (Malme-3M): 22.8 µM (inactive) and 20.1 µM (inactive)
- GI50 (HCT-116): 15 µM (inactive) and 19 µM (inactive)
- GI50 (IGROV-1): 16.5 µM (inactive) and 14.3 µM (inactive)
- GI50 (SF-268): 15.7 µM (inactive) and 18.2 µM (inactive)
- GI50 (M14): 14.8 µM (inactive) and 16 µM (inactive)
